Experimental data: US9018207B2, “Method of treatment or prophylaxis” (Spinifex Pharmaceuticals Pty Ltd, priority 2004, dated 2015)
Entries after “also recorded” stand apart in the source; their conditions may differ.

Columns and labels:
Type in all cases: in vivo, Sprague-Dawley (SD) rats
[1] = test system: rats with a chronic constriction injury (CCI) of the sciatic nerve; experiment: Relief of tactile allodynia (von Frey paw withdrawal thresholds) in the ipsilateral (injured) hindpaw of CCI-rats
Description: (§1) Adult male Sprague-Dawley (SD) rats were anaesthetized with Zoletil 100® (0.09 ml/200 g) and Xylazil-20™ (0.1 mL/200 g) administered by intraperitoneal (i.p.) injection, and a chronic constriction injury (CCI) of the sciatic nerve was produced according to the method of Bennett and Xie (1988). Briefly, the left common sciatic nerve was exposed at mid-thigh level by blunt dissection through the biceps femoris. Proximal to the trifurcation, 10 mm of nerve was freed of adhering tissue and four loose ligatures (3.0 silk) were tied around the sciatic nerve 1 mm apart). The incision was closed in layers. After surgery, rats received benzylpenicillin (60 mg s.c.) to prevent infection and were kept warm during surgical recovery. Rats were housed singly for 10-14 days prior to AT2 receptor antagonist or vehicle (normal saline) administration. After CCI-surgery, rats were inspected daily with regard to posture of the affected hindpaw, exploring behavior, body weight and water intake, and any signs of autotomy. Whilst under light anaesthesia with CO2/O2 (50:50%), CCI-rats or STZ-diabetic rats received a single bolus injection (200 μL) of one AT2 receptor antagonist (PD123,319 or L-159,686) by the intravenous (i.v.) or the intraperitoneal (i.p.) route, using a 250 μL Hamilton syringe. The test compounds were administered to CCI-rats at 14 days after CCI-surgery and to STZ-diabetic rats at approximately 8-wks after the induction of diabetes with STZ. Relief of tactile (mechanical) allodynia, the defining symptom of neuropathic pain, by each of the test agents, PD123,319 or L-159,686, was quantified using calibrated von Frey filaments as described below. Tactile allodynia was quantified using calibrated von Frey filaments. Rats were placed in wire mesh testing cages (20 cm×20 cm×20 cm) and allowed to acclimatise for approximately […] Von Frey filaments were used to determine the lowest mechanical threshold required for a brisk paw withdrawal reflex. Briefly, the filament that produced the lowest force was applied to the plantar surface of the hindpaw until the filament buckled slightly. Absence of a response after 5 s prompted use of the next filament in an ascending sequence. Filaments used produced a buckling weight of 2, 4, 6, 8, 10, 12, 14, 16, 18 and 20 g and these were calibrated prior to each testing session. […] For CCI-rats, baseline von Frey paw withdrawal thresholds (PWTs) were quantified prior to CCI-surgery, and at 14 days post-surgery immediately prior to drug administration. For STZ-diabetic rats, baseline von Frey PWT values were determined prior to the induction of diabetes with STZ and at 1-2 weekly intervals thereafter for 8 weeks to document the temporal development of tactile allodynia. For all rats, baseline PWTs were the mean of three readings taken, 5 min apart before drug administration and were determined separately for each hindpaw. After administration of each test compound, von Frey PWTs were determined at the following post-dosing times: 0.08, 0.25, 0.5, 0.75, 1, 1.25, 1.5, 2 and 3 h. Paw withdrawal thresholds (PWTs; g) were plotted against time to construct response versus time curves for each of the two test compounds (PD123,319 and L-159,686) for each dose and dosing route. Whilst adult male SD rats were anaesthetized with 3% isoflurane: 97% oxygen, four loose ligatures were tied around one sciatic nerve to produce a unilateral chronic constriction injury (CCI) according to the method of Bennett and Xie (1988, Pain 33: 87-107). Briefly, the left common sciatic nerve was exposed at mid-thigh level by blunt dissection through the biceps femoris. Proximal to the trifurcation, 10 mm of nerve was freed of adhering tissue and four loose ligatures (3.0 silk) were tied around the sciatic nerve 1 mm apart). The incision was closed in layers. After surgery, rats received benzylpenicillin (60 mg s.c.) to prevent infection and were kept warm during surgical recovery. […]

[2] = test system: rats with a chronic constriction injury (CCI) of the sciatic nerve; experiment: Antinociception (von Frey paw withdrawal thresholds) in the contralateral hindpaw of CCI-rats; settings: i.p. doses up to 30 μg/kg
Description: as §1, with “87-107).” for “87-107). Briefly, the left common sciatic nerve was exposed at mid-thigh level by blunt dissection through the biceps femoris. Proximal to the trifurcation, 10 mm of nerve was freed of adhering tissue and four loose ligatures (3.0 silk) were tied around the sciatic nerve 1 mm apart). The incision was closed in layers. After surgery, rats received benzylpenicillin (60 mg s.c.) to prevent infection and were kept warm during surgical recovery.”

STZ-diabetic rats = experiment: Relief of tactile allodynia (von Frey paw withdrawal thresholds) in the hindpaws of STZ-diabetic rats (model of PDN)
Description: Adult male SD rats were anaesthetized in a manner similar to that described above, to facilitate insertion of a polyethylene cannula (previously filled with 0.1 ml of sterile saline) into the right common jugular vein. Jugular vein cannulae were tested for correct placement by the withdrawal of a small amount of blood. Diabetes was induced following an acute i.v. injection of streptozotocin (STZ) (80 mg/kg) in 0.1 M citrate buffer (pH 4.5) into the jugular vein. Diabetes was confirmed by monitoring the water intake and blood glucose concentration in individual rats. Blood glucose was monitored using either (Glucostix™) or a Precision QID™ test kit.
Consistent with previous studies in the literature (Calcutt et al., 1996, Pain. 68(2-3):293-9), rats that drank more than 100 mL of water per day by 10 days post-STZ injection, were classified as diabetic, and only rats with blood glucose concentrations exceeding 15 mM were included in the subsequent experiments. By comparison, the water intake of control non-diabetic rats was approximately 20 mL per day and blood glucose concentrations were in the range 5-6 mM, consistent with the literature (Calcutt et al., 1996, supra).
Whilst under light anaesthesia with CO2/O2 (50:50%), CCI-rats or STZ-diabetic rats received a single bolus injection (200 μL) of one AT2 receptor antagonist (PD123,319 or L-159,686) by the intravenous (i.v.) or the intraperitoneal (i.p.) route, using a 250 μL Hamilton syringe. The test compounds were administered to CCI-rats at 14 days after CCI-surgery and to STZ-diabetic rats at approximately 8-wks after the induction of diabetes with STZ. Relief of tactile (mechanical) allodynia, the defining symptom of neuropathic pain, by each of the test agents, PD123,319 or L-159,686, was quantified using calibrated von Frey filaments as described below.
Tactile allodynia was quantified using calibrated von Frey filaments. Rats were placed in wire mesh testing cages (20 cm×20 cm×20 cm) and allowed to acclimatise for approximately […] Von Frey filaments were used to determine the lowest mechanical threshold required for a brisk paw withdrawal reflex. Briefly, the filament that produced the lowest force was applied to the plantar surface of the hindpaw until the filament buckled slightly. Absence of a response after 5 s prompted use of the next filament in an ascending sequence. Filaments used produced a buckling weight of 2, 4, 6, 8, 10, 12, 14, 16, 18 and 20 g and these were calibrated prior to each testing session.
For CCI-rats, baseline von Frey paw withdrawal thresholds (PWTs) were quantified prior to CCI-surgery, and at 14 days post-surgery immediately prior to drug administration. For STZ-diabetic rats, baseline von Frey PWT values were determined prior to the induction of diabetes with STZ and at 1-2 weekly intervals thereafter for 8 weeks to document the temporal development of tactile allodynia. For all rats, baseline PWTs were the mean of three readings taken, 5 min apart before drug administration and were determined separately for each hindpaw. After administration of each test compound, von Frey PWTs were determined at the following post-dosing times: 0.08, 0.25, 0.5, 0.75, 1, 1.25, 1.5, 2 and 3 h.
Paw withdrawal thresholds (PWTs; g) were plotted against time to construct response versus time curves for each of the two test compounds (PD123,319 and L-159,686) for each dose and dosing route.
Whilst adult male SD rats were anaesthetized with 3% isoflurane: 97% oxygen, a short polyethylene cannula (0.4 mm ID, 0.8 mm OD) was inserted into the jugular vein to facilitate the intravenous (i.v) administration of a single dose of STZ (75 mg/kg). After removal of the i.v. cannula, the jugular vein was tied off, the wound was closed and topical bupivacaine was applied. Rats received benzylpenicillin (60 mg s.c.) to prevent infection and were kept warm during surgical recovery. […]

[3] = test system: rats with a chronic constriction injury (CCI) of the sciatic nerve; experiment: Relief of tactile allodynia (von Frey paw withdrawal thresholds) in the ipsilateral (injured) hindpaw of CCI-rats; settings: oral bolus 30 μg/kg vs same dose i.p.
[4] = CCI-rats, i.p. bolus 3 to 30 μg/kg
[5] = STZ-diabetic rats, i.p. bolus 1.0 to 100 ng/kg

## COc1ccc2c(c1OCc1ccccc1)C[C@@H](C(=O)O)N(C(=O)C(c1ccccc1)c1ccccc1)C2 [PD-126,055]
[1]; CCI-rats vs STZ-diabetic rats
  doses required to produce significant relief of tactile allodynia in CCI-rats compared with STZ-diabetic rats: considerably larger doses
[1]; CCI-rats, 30 μg/kg, irrespective of dosing route (oral or i.p.)
  duration of action: ~3 h
[1]; [4]
  anti-allodynia (relief of tactile allodynia) in the ipsilateral hindpaw: dose-dependent onset of anti-allodynia; also recorded: dose-dependent relief of tactile allodynia
  onset of anti-allodynia in the ipsilateral hindpaw: rapid
  time of peak responses post-dosing: 0.75 to 1 h
[1]; CCI-rats, i.p., doses larger than 3 μg/kg
  duration of action: > 3 h
[1]; CCI-rats, i.p., lowest dose tested (3 μg/kg)
  duration of action: 1.5 h
[2]
  antinociception in the contralateral hindpaw: insignificant antinociception
STZ-diabetic rats; STZ-diabetic rat model of PDN, single i.p. bolus doses
  relief of tactile allodynia (summary in discussion): potent relief of tactile allodynia
STZ-diabetic rats; [5]
  duration of action: 2 to 3 h
  onset of action post-dosing: 0.5 h
  relief of tactile allodynia: significant relief of tactile allodynia
  time of peak anti-allodynia post-dosing: 0.75 to 1.0 h
STZ-diabetic rats; STZ-diabetic rats, i.p., higher doses tested
  reversal of tactile allodynia in the hindpaws: fully reversed
STZ-diabetic rats; STZ-diabetic rats, single i.p. bolus doses
  onset of anti-allodynia (summary in discussion): relatively rapid onset
[3]
  extent and duration of the anti-allodynic response, oral compared with i.p. route: similar
